This note sets out measurements from US12686665B2, “Bicyclic fused ring derivative or salt thereof and pharmaceutical composition comprising same” (YUHAN CORPORATION, priority 2021, dated 2026).

Where a name gives a salt, the structure may show the parent alone.

Holding throughout (type): biochemical
Test [1] addresses T1, recombinant human DAO (diamine oxidase) (Homo sapiens, UniProt P19801).
T1 construct: purchased R&D systems
T1 sequence (P19801 20-751): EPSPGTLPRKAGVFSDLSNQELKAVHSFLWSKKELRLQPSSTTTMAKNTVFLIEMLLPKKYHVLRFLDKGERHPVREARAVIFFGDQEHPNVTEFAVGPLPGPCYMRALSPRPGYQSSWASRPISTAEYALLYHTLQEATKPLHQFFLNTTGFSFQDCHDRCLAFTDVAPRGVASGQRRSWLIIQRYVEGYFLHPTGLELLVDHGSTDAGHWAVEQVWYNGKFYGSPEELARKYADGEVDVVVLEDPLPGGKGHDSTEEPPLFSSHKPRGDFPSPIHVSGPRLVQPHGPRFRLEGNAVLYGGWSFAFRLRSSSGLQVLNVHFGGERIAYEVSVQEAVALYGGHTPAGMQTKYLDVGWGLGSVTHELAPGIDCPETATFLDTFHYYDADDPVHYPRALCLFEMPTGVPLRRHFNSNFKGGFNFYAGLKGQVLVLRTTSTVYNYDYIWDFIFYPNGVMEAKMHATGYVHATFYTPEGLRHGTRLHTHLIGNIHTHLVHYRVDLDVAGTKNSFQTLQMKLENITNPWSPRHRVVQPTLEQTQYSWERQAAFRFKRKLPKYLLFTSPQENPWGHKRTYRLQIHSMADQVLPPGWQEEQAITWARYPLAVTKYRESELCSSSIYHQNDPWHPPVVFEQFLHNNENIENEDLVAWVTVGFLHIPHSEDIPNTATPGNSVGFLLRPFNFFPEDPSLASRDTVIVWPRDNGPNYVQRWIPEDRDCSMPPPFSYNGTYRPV
Briefly: Amplex Red HRP-coupled amine oxidase assay, recombinant human DAO. Particulars: 1 mM putrescine substrate, read-out: Inhibitory activity (IC50, nM) DAO. A digest of the protocol:
(§1)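 Enzyme preincubated 60 min at 37 °C with compound (six-point curve, 1% DMSO final) in 50 mM sodium phosphate pH 7.4, then Amplex Red 400 μM and HRP 2 U/mL added with substrate: MAO-A 0.5 mM tyramine, MAO-B 1 mM benzylamine, DAO 1 mM putrescine. Resorufin fluorescence read after 1 h; IC50 by four-parameter logistic fit.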

The target in test [2] is T2, recombinant human Lysyl Oxidase-Like 2 (LOXL2) (Homo sapiens, UniProt Q9Y4K0).
T2 construct: purchased R&D systems
T2 sequence (Q9Y4K0 26-774): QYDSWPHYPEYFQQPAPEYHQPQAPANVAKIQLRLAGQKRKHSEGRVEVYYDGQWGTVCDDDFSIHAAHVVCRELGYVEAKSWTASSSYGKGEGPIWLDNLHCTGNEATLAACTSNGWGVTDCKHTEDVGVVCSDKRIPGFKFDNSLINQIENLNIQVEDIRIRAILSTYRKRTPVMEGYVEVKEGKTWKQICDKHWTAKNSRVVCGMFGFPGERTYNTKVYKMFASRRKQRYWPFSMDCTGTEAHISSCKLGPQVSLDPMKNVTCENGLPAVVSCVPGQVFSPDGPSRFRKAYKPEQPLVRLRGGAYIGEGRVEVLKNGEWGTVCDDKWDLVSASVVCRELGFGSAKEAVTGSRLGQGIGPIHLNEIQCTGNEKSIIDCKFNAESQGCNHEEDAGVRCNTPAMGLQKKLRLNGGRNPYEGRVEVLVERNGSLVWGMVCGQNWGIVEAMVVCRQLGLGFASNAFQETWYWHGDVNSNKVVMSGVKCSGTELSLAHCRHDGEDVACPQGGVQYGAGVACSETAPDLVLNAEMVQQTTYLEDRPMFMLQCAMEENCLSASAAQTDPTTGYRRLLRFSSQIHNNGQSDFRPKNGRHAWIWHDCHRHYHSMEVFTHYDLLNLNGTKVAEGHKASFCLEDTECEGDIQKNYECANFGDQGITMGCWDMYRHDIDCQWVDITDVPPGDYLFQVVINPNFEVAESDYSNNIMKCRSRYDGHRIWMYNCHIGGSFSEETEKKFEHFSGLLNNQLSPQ
In words: Amplex Red HRP-coupled amine oxidase assay, recombinant human LOXL2. As to conditions: 60 min incubation with enzyme at 37° C., putrescine substrate, read-out: Inhibitory activity (IC50, nM) human LOXL2. A digest of the protocol: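 Putrescine substrate (30 mM) in 50 mM sodium phosphate pH 7.4, 37 °C; compounds preincubated 60 min with enzyme, 1% DMSO final, six-point curves. H2O2 detected via 400 μM Amplex Red/2 U/mL HRP, fluorescence (ex 530/em 590 nm) after 1 h; IC50 from four-parameter logistic fit of % signal reduction.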

Test [3] addresses T3, recombinant human MAO-B (monoamine oxidase-B) (Homo sapiens, UniProt P27338).
T3 construct: purchased Sigma-Aldrich
T3 sequence (P27338 1-520): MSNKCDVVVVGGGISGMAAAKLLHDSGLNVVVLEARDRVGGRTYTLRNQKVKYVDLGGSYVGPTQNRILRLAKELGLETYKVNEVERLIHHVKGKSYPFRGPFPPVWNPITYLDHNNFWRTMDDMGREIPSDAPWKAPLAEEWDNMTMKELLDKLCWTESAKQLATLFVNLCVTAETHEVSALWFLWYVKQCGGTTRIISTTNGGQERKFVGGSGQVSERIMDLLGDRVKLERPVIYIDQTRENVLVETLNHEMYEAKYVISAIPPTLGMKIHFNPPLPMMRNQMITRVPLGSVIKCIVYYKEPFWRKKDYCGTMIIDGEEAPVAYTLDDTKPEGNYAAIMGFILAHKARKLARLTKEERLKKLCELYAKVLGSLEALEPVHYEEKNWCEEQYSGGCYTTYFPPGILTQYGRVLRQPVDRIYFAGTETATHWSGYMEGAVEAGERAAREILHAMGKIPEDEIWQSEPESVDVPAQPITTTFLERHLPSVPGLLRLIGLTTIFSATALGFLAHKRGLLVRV
Briefly: Amplex Red HRP-coupled amine oxidase assay, recombinant human MAO-B. As to conditions: 1 mM benzylamine substrate, read-out: Inhibitory activity (IC50, nM) MAO-B. The method, boiled down: as §1

The target of test [4] is T4, recombinant human MAO-A (monoamine oxidase-A) (Homo sapiens, UniProt P21397).
T4 construct: purchased Sigma-Aldrich
T4 sequence (P21397 1-527): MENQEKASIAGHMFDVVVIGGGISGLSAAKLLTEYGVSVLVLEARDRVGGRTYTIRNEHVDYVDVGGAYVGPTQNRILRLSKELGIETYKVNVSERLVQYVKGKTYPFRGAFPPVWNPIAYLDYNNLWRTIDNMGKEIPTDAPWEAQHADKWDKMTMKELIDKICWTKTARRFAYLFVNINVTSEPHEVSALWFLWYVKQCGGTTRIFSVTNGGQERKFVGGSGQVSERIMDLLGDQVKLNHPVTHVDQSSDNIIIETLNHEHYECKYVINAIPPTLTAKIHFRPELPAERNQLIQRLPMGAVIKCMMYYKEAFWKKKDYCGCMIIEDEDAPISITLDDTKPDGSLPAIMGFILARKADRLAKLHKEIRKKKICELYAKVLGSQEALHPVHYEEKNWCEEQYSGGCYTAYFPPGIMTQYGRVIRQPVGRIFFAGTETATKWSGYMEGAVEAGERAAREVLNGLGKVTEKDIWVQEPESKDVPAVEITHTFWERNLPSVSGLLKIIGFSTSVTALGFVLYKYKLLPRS
In words: Amplex Red HRP-coupled amine oxidase assay, recombinant human MAO-A. Particulars: 0.5 mM tyramine substrate, read-out: Inhibitory activity (IC50, nM) MAO-A. The method, boiled down:
as §1

With `NC/C=C(\F)Cn1cnc2c(-c3cccnc3)cc(C(F)(F)F)cc21` [Example 172, (Z)-3-fluoro-4-(4-(pyridin-3-yl)-6-(trifluoromethyl)-1H-benzo[d]imidazol-1-yl)but-2-en-1-amine hydrochloride], the IC50 (as a rule, the midpoint of a concentration-inhibition curve) in test [1] came to 3520 nM; in test [2] it was 311 nM; in test [3], 51600 nM; in test [4], 17800 nM.

Consider `CS(=O)(=O)c1cccc(-c2cc(C(F)(F)F)cc3c2ncn3C/C(F)=C/CN)c1` [Example 13, (Z)-3-fluoro-4-(4-(3-(methylsulfonyl)phenyl)-6-(trifluoromethyl)-1H-benzo[d]imidazol-1-yl) but-2-en-1-amine hydrochloride], for which the IC50 in test [1] is > 100000 nM; in test [2], 104 nM; in test [3] it was > 100000 nM; in test [4], > 100000 nM.

In the case of `COC(=O)c1cc(-c2ccc(OC)c(S(=O)(=O)N(C)C)c2)c2ncn(C/C(F)=C/CN)c2c1` [Example 21, methyl (Z)-1-(4-amino-2-fluorobut-2-en-1-yl)-4-(3-(N,N-dimethylsulfamoyl)-4-methoxyphenyl)-1H-benzo[d]imidazol-6-carboxylate hydrochloride], the IC50 in test [1] is 380 nM; in test [2], 22.7 nM; in test [3], > 100000 nM; in test [4] it was 12200 nM.

Take `COC(=O)c1cc(-c2cccc(S(=O)(=O)N3CCCC3)c2)c2ncn(C/C(F)=C/CN)c2c1` [Example 23, methyl (Z)-1-(4-amino-2-fluorobut-2-en-1-yl)-4-(3-(pyrrolidin-1-ylsulfonyl)phenyl)-1H-benzo[d]imidazol-6-carboxylate hydrochloride]: the IC50 in test [1] was 986 nM; in test [2] it was 16.7 nM; in test [3], > 100000 nM; in test [4] it was > 100000 nM.

Regarding `NC/C=C(\F)Cn1cnc2c(-c3cccc(S(=O)(=O)NC4CC4)c3)cc(F)cc21` [Example 9, (Z)-3-(1-(4-amino-2-fluorobut-2-en-1-yl)-6-fluoro-1H-benzo[d]imidazol-4-yl)-N-cyclopropylbenzenesulfonamide hydrochloride], the IC50 in test [1] is 3100 nM; in test [2], 39 nM; in test [3], > 100000 nM; in test [4], 48600 nM.

As to `CNS(=O)(=O)c1ccc(OC)c(-c2cc(C#N)cc3c2ncn3C/C(F)=C/CN)c1` [Example 183, (Z)-3-(1-(4-amino-2-fluorobut-2-en-1-yl)-6-cyano-1H-benzo[d]imidazol-4-yl)-4-methoxy-N-methylbenzenesulfonamide hydrochloride], the half-maximal inhibitory concentration (IC50) is 1820 nM in test [1], 35.1 nM in test [2], > 100000 nM in test [3] and > 100000 nM in test [4].

For `Cn1nccc1-c1cc(C(F)(F)F)cc2c1ncn2C/C(F)=C/CN` [Example 176, (Z)-3-fluoro-4-(4-(1-methyl-1H-pyrazol-5-yl)-6-(trifluoromethyl)-1H-benzo[d]imidazol-1-yl) but-2-en-1-yl-amine hydrochloride], the IC50 in test [1] is 26700 nM; in test [2] it was 92.4 nM; in test [3], > 100000 nM; in test [4] it was > 100000 nM.

Turning to `COC(=O)c1cc(-c2cccc(S(C)(=O)=O)c2)c2ncn(C/C(F)=C/CN)c2c1` [Example 25, methyl (Z)-1-(4-amino-2-fluorobut-2-en-1-yl)-4-(3-(methylsulfonyl)phenyl)-1H-benzo[d]imidazol-6-carboxylate hydrochloride], the IC50 was 1230 nM in test [1], 22.7 nM in test [2], > 100000 nM in test [3] and > 100000 nM in test [4].

Consider `COc1ccc(S(=O)(=O)NC2CC2)cc1-c1cccc2c1nnn2C/C(F)=C/CN` [Example 108, (Z)-3-(1-(4-amino-2-fluorobut-2-en-1-yl)-1H-benzo[d][1,2,3]triazol-4-yl)-N-cyclopropyl-4-methoxybenzenesulfonamide hydrochloride], for which the IC50 in test [1] was > 100000 nM; in test [2], 42 nM; in test [3], > 100000 nM; in test [4] it was > 100000 nM.

Turning to `COC(=O)c1cc(-c2cccc(S(=O)(=O)N(C)C)c2)c2nc(C)n(C/C(F)=C/CN)c2c1` [Example 66, methyl (Z)-1-(4-amino-2-fluorobut-2-en-1-yl)-4-(3-(N,N-dimethylsulfamoyl)phenyl)-2-methyl-1H-benzo[d]imidazol-6-carboxylate hydrochloride], the half-maximal inhibitory concentration (IC50) is 1610 nM in test [1], 28 nM in test [2], > 100000 nM in test [3] and 7890 nM in test [4].

For `CNS(=O)(=O)c1cccc(-c2cccc3c2nnn3C/C(F)=C/CN)c1` [Example 111, (Z)-3-(1-(4-amino-2-fluorobut-2-en-1-yl)-1H-benzo[d][1,2,3]triazol-4-yl)-N-methylbenzenesulfonamide hydrochloride], the IC50 is 30700 nM in test [1], 35 nM in test [2], > 100000 nM in test [3] and > 100000 nM in test [4].

In the case of `CNS(=O)(=O)c1cccc(-c2cccc3c2nc(C(F)(F)F)n3C/C(F)=C/CN)c1` [Example 53, (Z)-3-(1-(4-amino-2-fluorobut-2-en-1-yl)-2-(trifluoromethyl)-1H-benzo[d]imidazol-4-yl)-N-methylbenzenesulfonamide hydrochloride], the 50% inhibitory concentration (IC50) was > 100000 nM in test [1], 68 nM in test [2], > 100000 nM in test [3] and > 100000 nM in test [4].
